Source: US9487502B2, “Chemical compounds” (Syngenta Limited, priority 2013, dated 2016)

How the values were obtained:
Type in all cases: in vivo
[1] = system: Amaranthus retroflexus; experiment: Pre-emergence herbicidal activity, AMARE; design: key: 5=total damage to plant; 0=no damage to plant; details: 1000 g/Ha, sprayed pre-emergence, evaluated after 13 days, scale 0-5
Procedure: (§1) Seeds of a variety of test species were sown in standard soil in pots. After cultivation for one day (pre-emergence) under controlled conditions in a glasshouse (at 24/16° C., day/night; 14 hours light; 65% humidity), the plants were sprayed with an aqueous spray solution derived from the formulation of the technical active ingredient in acetone/water (50:50) solution containing 0.5% Tween 20 (polyoxyethelyene sorbitan monolaurate, CAS RN 9005-64-5). The test plants were then grown in a glasshouse under controlled conditions (at 24/16° C., day/night; 14 hours light; 65% humidity) and watered twice daily. After 13 days, the test was evaluated (5=total damage to plant; 0=no damage to plant).

[2] = system: Amaranthus retroflexus; experiment: Post-emergence herbicidal activity, AMARE; design: key: 5=total damage to plant; 0=no damage to plant; details: 1000 g/Ha, sprayed post-emergence (8 days cultivation), evaluated after 13 days, scale 0-5
Procedure: (§2) Seeds of a variety of test species were sown in standard soil in pots. After 8 days cultivation (post-emergence) under controlled conditions in a glasshouse (at 24/16° C., day/night; 14 hours light; 65% humidity), the plants were sprayed with an aqueous spray solution derived from the formulation of the technical active ingredient in acetone/water (50:50) solution containing 0.5% Tween 20 (polyoxyethelyene sorbitan monolaurate, CAS RN 9005-64-5). The test plants were then grown in a glasshouse under controlled conditions (at 24/16° C., day/night; 14 hours light; 65% humidity) and watered twice daily. After 13 days, the test was evaluated (5=total damage to plant; 0=no damage to plant).

[3] = system: Setaria faberi; experiment: Pre-emergence herbicidal activity, SETFA; design: key: 5=total damage to plant; 0=no damage to plant; details: 1000 g/Ha, sprayed pre-emergence, evaluated after 13 days, scale 0-5
Procedure: as §1

[4] = system: Echinochloa crus-galli; experiment: Post-emergence herbicidal activity, ECHCG; design: key: 5=total damage to plant; 0=no damage to plant; details: 1000 g/Ha, sprayed post-emergence (8 days cultivation), evaluated after 13 days, scale 0-5
Procedure: as §2

[5] = system: Echinochloa crus-galli; experiment: Pre-emergence herbicidal activity, ECHCG; design: key: 5=total damage to plant; 0=no damage to plant; details: 1000 g/Ha, sprayed pre-emergence, evaluated after 13 days, scale 0-5
Procedure: as §1

[6] = system: Abutilon theophrasti; experiment: Pre-emergence herbicidal activity, ABUTH; design: key: 5=total damage to plant; 0=no damage to plant; details: 1000 g/Ha, sprayed pre-emergence, evaluated after 13 days, scale 0-5
Procedure: as §1

[7] = system: Alopecurus myosuroides; experiment: Pre-emergence herbicidal activity, ALOMY; details: 1000 g/Ha, sprayed pre-emergence, evaluated after 13 days, scale 0-5
Procedure: as §1

[8] = system: Zea mays; experiment: Pre-emergence herbicidal activity, ZEAMX; details: 1000 g/Ha, sprayed pre-emergence, evaluated after 13 days, scale 0-5
Procedure: as §1

[9] = system: Alopecurus myosuroides; experiment: Post-emergence herbicidal activity, ALOMY; design: key: 5=total damage to plant; 0=no damage to plant; details: 1000 g/Ha, sprayed post-emergence (8 days cultivation), evaluated after 13 days, scale 0-5
Procedure: as §2

[10] = system: Setaria faberi; experiment: Post-emergence herbicidal activity, SETFA; design: key: 5=total damage to plant; 0=no damage to plant; details: 1000 g/Ha, sprayed post-emergence (8 days cultivation), evaluated after 13 days, scale 0-5
Procedure: as §2

[11] = system: Zea mays; experiment: Post-emergence herbicidal activity, ZEAMX; design: key: 5=total damage to plant; 0=no damage to plant; details: 1000 g/Ha, sprayed post-emergence (8 days cultivation), evaluated after 13 days, scale 0-5
Procedure: as §2

[12] = system: Abutilon theophrasti; experiment: Post-emergence herbicidal activity, ABUTH; design: key: 5=total damage to plant; 0=no damage to plant; details: 1000 g/Ha, sprayed post-emergence (8 days cultivation), evaluated after 13 days, scale 0-5
Procedure: as §2

## CON1C(=O)N(c2cc(C(C)(C)C)ncn2)C(O)C1O (stereo not drawn) [Example A9]
[1]
  AMARE damage score, application pre-emergence: 5
[2]
  AMARE damage score, application post-emergence: 5
[3]
  SETFA damage score, application pre-emergence: 1
[4]
  ECHCG damage score, application post-emergence: 4
[5]
  ECHCG damage score, application pre-emergence: 2
[6]
  ABUTH damage score, application pre-emergence: 0
[7]
  ALOMY damage score, application pre-emergence: 3
[8]
  ZEAMX damage score, application pre-emergence: 1
[9]
  ALOMY damage score, application post-emergence: 4
[10]
  SETFA damage score, application post-emergence: 4
[11]
  ZEAMX damage score, application post-emergence: 1
[12]
  ABUTH damage score, application post-emergence: 5

## CCCOC1C(O)N(c2cc(C(C)(C)C)ncn2)C(=O)N1C (stereo not drawn) [Example A10]
[1]
  AMARE damage score, application pre-emergence: 5
[2]
  AMARE damage score, application post-emergence: 5
[3]
  SETFA damage score, application pre-emergence: 4
[4]
  ECHCG damage score, application post-emergence: 4
[5]
  ECHCG damage score, application pre-emergence: 2
[6]
  ABUTH damage score, application pre-emergence: 4
[7]
  ALOMY damage score, application pre-emergence: 4
[8]
  ZEAMX damage score, application pre-emergence: 2
[9]
  ALOMY damage score, application post-emergence: 4
[10]
  SETFA damage score, application post-emergence: 4
[11]
  ZEAMX damage score, application post-emergence: 2
[12]
  ABUTH damage score, application post-emergence: 5

## COC1C(O)N(c2cc(C(C)(C)C)ncn2)C(=O)N1C (stereo not drawn) [Example A11]
[1]
  AMARE damage score, application pre-emergence: 5
[2]
  AMARE damage score, application post-emergence: 5
[3]
  SETFA damage score, application pre-emergence: 4
[4]
  ECHCG damage score, application post-emergence: 4
[5]
  ECHCG damage score, application pre-emergence: 3
[6]
  ABUTH damage score, application pre-emergence: 4
[7]
  ALOMY damage score, application pre-emergence: 3
[8]
  ZEAMX damage score, application pre-emergence: 1
[9]
  ALOMY damage score, application post-emergence: 4
[10]
  SETFA damage score, application post-emergence: 5
[11]
  ZEAMX damage score, application post-emergence: 1
[12]
  ABUTH damage score, application post-emergence: 5

## CCC1C(O)N(c2cc(C(C)(C)C)ncn2)C(=O)N1C (stereo not drawn) [Example A16]
[1]
  AMARE damage score, application pre-emergence: 5
[2]
  AMARE damage score, application post-emergence: 5
[3]
  SETFA damage score, application pre-emergence: 5
[4]
  ECHCG damage score, application post-emergence: 5
[5]
  ECHCG damage score, application pre-emergence: 4
[6]
  ABUTH damage score, application pre-emergence: 5
[7]
  ALOMY damage score, application pre-emergence: 2
[8]
  ZEAMX damage score, application pre-emergence: 2
[9]
  ALOMY damage score, application post-emergence: 3
[10]
  SETFA damage score, application post-emergence: 5
[11]
  ZEAMX damage score, application post-emergence: 4
[12]
  ABUTH damage score, application post-emergence: 5

## CCCC1C(O)N(c2cc(C(C)(C)C)ncn2)C(=O)N1C (stereo not drawn) [Example A17]
[1]
  AMARE damage score, application pre-emergence: 5
[2]
  AMARE damage score, application post-emergence: 5
[3]
  SETFA damage score, application pre-emergence: 5
[4]
  ECHCG damage score, application post-emergence: 5
[5]
  ECHCG damage score, application pre-emergence: 5
[6]
  ABUTH damage score, application pre-emergence: 4
[7]
  ALOMY damage score, application pre-emergence: 4
[8]
  ZEAMX damage score, application pre-emergence: 3
[9]
  ALOMY damage score, application post-emergence: 3
[10]
  SETFA damage score, application post-emergence: 5
[11]
  ZEAMX damage score, application post-emergence: 4
[12]
  ABUTH damage score, application post-emergence: 5

## CCOC1C(O)N(c2cc(C(C)(C)C#N)ncn2)C(=O)N1C (stereo not drawn) [Example A18]
[1]
  AMARE damage score, application pre-emergence: 5
[2]
  AMARE damage score, application post-emergence: 5
[3]
  SETFA damage score, application pre-emergence: 4
[4]
  ECHCG damage score, application post-emergence: 5
[5]
  ECHCG damage score, application pre-emergence: 3
[6]
  ABUTH damage score, application pre-emergence: 5
[7]
  ALOMY damage score, application pre-emergence: 1
[8]
  ZEAMX damage score, application pre-emergence: 2
[9]
  ALOMY damage score, application post-emergence: 4
[10]
  SETFA damage score, application post-emergence: 5
[11]
  ZEAMX damage score, application post-emergence: 5
[12]
  ABUTH damage score, application post-emergence: 5

## CCC1C(O)N(c2cc(C(C)(C)C)ncn2)C(=O)N1OC (stereo not drawn) [Example A19]
[1]
  AMARE damage score, application pre-emergence: 5
[2]
  AMARE damage score, application post-emergence: 5
[3]
  SETFA damage score, application pre-emergence: 5
[4]
  ECHCG damage score, application post-emergence: 3
[5]
  ECHCG damage score, application pre-emergence: 5
[6]
  ABUTH damage score, application pre-emergence: 3
[7]
  ALOMY damage score, application pre-emergence: 4
[8]
  ZEAMX damage score, application pre-emergence: 3
[9]
  ALOMY damage score, application post-emergence: 3
[10]
  SETFA damage score, application post-emergence: 2
[11]
  ZEAMX damage score, application post-emergence: 5
[12]
  ABUTH damage score, application post-emergence: 5

## CC1C(O)N(c2cc(C(C)(C)F)ncn2)C(=O)N1C (stereo not drawn) [Example A20]
[1]
  AMARE damage score, application pre-emergence: 5
[2]
  AMARE damage score, application post-emergence: 5
[3]
  SETFA damage score, application pre-emergence: 5
[4]
  ECHCG damage score, application post-emergence: 5
[5]
  ECHCG damage score, application pre-emergence: 4
[6]
  ABUTH damage score, application pre-emergence: 5
[7]
  ALOMY damage score, application pre-emergence: 3
[8]
  ZEAMX damage score, application pre-emergence: 4
[9]
  ALOMY damage score, application post-emergence: 4
[10]
  SETFA damage score, application post-emergence: 5
[11]
  ZEAMX damage score, application post-emergence: 4
[12]
  ABUTH damage score, application post-emergence: 5

## CON1C(=O)N(c2cc(C(C)(C)F)ncn2)C(O)C1C (stereo not drawn) [Example A21]
[1]
  AMARE damage score, application pre-emergence: 5
[2]
  AMARE damage score, application post-emergence: 5
[3]
  SETFA damage score, application pre-emergence: 5
[4]
  ECHCG damage score, application post-emergence: 5
[5]
  ECHCG damage score, application pre-emergence: 4
[6]
  ABUTH damage score, application pre-emergence: 5
[7]
  ALOMY damage score, application pre-emergence: 3
[8]
  ZEAMX damage score, application pre-emergence: 3
[9]
  ALOMY damage score, application post-emergence: 5
[10]
  SETFA damage score, application post-emergence: 5
[11]
  ZEAMX damage score, application post-emergence: 4
[12]
  ABUTH damage score, application post-emergence: 5

## CN1CC(O)N(c2cc(C(C)(C)F)ncn2)C1=O (stereo not drawn) [Example A22]
[1]
  AMARE damage score, application pre-emergence: 5
[2]
  AMARE damage score, application post-emergence: 5
[3]
  SETFA damage score, application pre-emergence: 5
[4]
  ECHCG damage score, application post-emergence: 5
[5]
  ECHCG damage score, application pre-emergence: 5
[6]
  ABUTH damage score, application pre-emergence: 5
[7]
  ALOMY damage score, application pre-emergence: 4
[8]
  ZEAMX damage score, application pre-emergence: 4
[9]
  ALOMY damage score, application post-emergence: 5
[10]
  SETFA damage score, application post-emergence: 5
[11]
  ZEAMX damage score, application post-emergence: 5
[12]
  ABUTH damage score, application post-emergence: 5

## CON1CC(O)N(c2cc(C(C)(C)C)ncn2)C1=O (stereo not drawn) [Example A23]
[1]
  AMARE damage score, application pre-emergence: 5
[2]
  AMARE damage score, application post-emergence: 4
[3]
  SETFA damage score, application pre-emergence: 2
[4]
  ECHCG damage score, application post-emergence: 4
[5]
  ECHCG damage score, application pre-emergence: 4
[6]
  ABUTH damage score, application pre-emergence: 5
[7]
  ALOMY damage score, application pre-emergence: 1
[8]
  ZEAMX damage score, application pre-emergence: 1
[9]
  ALOMY damage score, application post-emergence: 1
[10]
  SETFA damage score, application post-emergence: 5
[11]
  ZEAMX damage score, application post-emergence: 4
[12]
  ABUTH damage score, application post-emergence: 5

## CC1C(O)N(c2cc(C(C)(C)C#N)ncn2)C(=O)N1C (stereo not drawn) [Example A24]
[1]
  AMARE damage score, application pre-emergence: 5
[2]
  AMARE damage score, application post-emergence: 5
[3]
  SETFA damage score, application pre-emergence: 5
[4]
  ECHCG damage score, application post-emergence: 5
[5]
  ECHCG damage score, application pre-emergence: 5
[6]
  ABUTH damage score, application pre-emergence: 5
[7]
  ALOMY damage score, application pre-emergence: 4
[8]
  ZEAMX damage score, application pre-emergence: 2
[9]
  ALOMY damage score, application post-emergence: 4
[10]
  SETFA damage score, application post-emergence: 5
[11]
  ZEAMX damage score, application post-emergence: 5
[12]
  ABUTH damage score, application post-emergence: 5

## CON1C(=O)N(c2cc(C(C)(C)C#N)ncn2)C(O)C1C (stereo not drawn) [Example A25]
[1]
  AMARE damage score, application pre-emergence: 5
[2]
  AMARE damage score, application post-emergence: 5
[3]
  SETFA damage score, application pre-emergence: 5
[4]
  ECHCG damage score, application post-emergence: 5
[5]
  ECHCG damage score, application pre-emergence: 5
[6]
  ABUTH damage score, application pre-emergence: 5
[7]
  ALOMY damage score, application pre-emergence: 4
[8]
  ZEAMX damage score, application pre-emergence: 4
[9]
  ALOMY damage score, application post-emergence: 5
[10]
  SETFA damage score, application post-emergence: 5
[11]
  ZEAMX damage score, application post-emergence: 5
[12]
  ABUTH damage score, application post-emergence: 5
